Test results as given in PubChem BioAssay AID1259407 (Chemical Carcinogenesis Research Information System (CCRIS), 2018).
Activity calls are given as the source filed them. How the calls were made is not given here.

Test system: CCRIS mutagenicity, Ames/micronucleus/aberration tests
Assay: CCRIS mutagenicity studies
[1] = Test System: AMES SALMONELLA TYPHIMURIUM, Strain/Indicator: TA98, Metabolic Activation: NONE, Method: PREINCUBATION
[2] = Test System: AMES SALMONELLA TYPHIMURIUM, Strain/Indicator: TA98, Metabolic Activation: NONE, Method: STANDARD PLATE
[3] = Test System: AMES SALMONELLA TYPHIMURIUM, Strain/Indicator: TA98, Metabolic Activation: RAT, LIVER, S-9, AROCLOR 1254, Method: STANDARD PLATE
[4] = Test System: AMES SALMONELLA TYPHIMURIUM, Strain/Indicator: TA100, Metabolic Activation: NONE, Method: STANDARD PLATE
[5] = Test System: AMES SALMONELLA TYPHIMURIUM, Strain/Indicator: TA100, Metabolic Activation: RAT, LIVER, S-9, AROCLOR 1254, Method: STANDARD PLATE
[6] = Test System: AMES SALMONELLA TYPHIMURIUM, Strain/Indicator: TA100, Metabolic Activation: NONE, Method: PREINCUBATION

`COCCN(CCOC)c1cc(NC(C)=O)c(-n2nc3c(Br)cc(N)c(Cl)c3n2)cc1OC` was tested, and the mutagenic call (Test System: AMES SALMONELLA TYPHIMURIUM, Strain/Indicator: TA98, Metabolic Activation: RAT LIVER S-9, AROCLOR 1254, Method: STANDARD PLATE) was “active; positive”, the mutagenic call (Test System: AMES SALMONELLA TYPHIMURIUM, Strain/Indicator: TA100, Metabolic Activation: RAT LIVER S-9, AROCLOR 1254, Method: STANDARD PLATE) was “active; positive” and the mutagenic call (Test System: AMES SALMONELLA TYPHIMURIUM, Strain/Indicator: TA104, Metabolic Activation: RAT LIVER S-9, AROCLOR 1254, Method: STANDARD PLATE) was “active; positive”. The mutagenic call (Test System: AMES SALMONELLA TYPHIMURIUM, Strain/Indicator: YG1024, Metabolic Activation: RAT LIVER S-9, PHENOBARBITAL, 5,6-BENZOFLAVONE (10%), Method: PREINCUBATION) was “active; positive”.

In the case of `O[C@@H]1c2ccc3cc4ccccc4cc3c2[C@@H]2OC2[C@@H]1O` (stereo partly drawn), the mutagenic call (Test System: CHINESE HAMSTER V-79, Strain/Indicator: V-79/8-AZAGUANINE, Metabolic Activation: NONE, Method: STANDARD PLATE) was “active; positive”.

For `CCC(C)OC(=O)C=Cc1ccc([N+](=O)[O-])o1` (stereo not drawn), the mutagenic call [1] was “active; positive”.

`[O-][N+](=Nc1ccc(Cl)c(Cl)c1)c1ccc(Cl)c(Cl)c1` was tested, and the mutagenic call (Test System: AMES SALMONELLA TYPHIMURIUM, Strain/Indicator: TA97, Metabolic Activation: NONE, Method: STANDARD PLATE) was “inactive; negative”, the mutagenic call (Test System: AMES SALMONELLA TYPHIMURIUM, Strain/Indicator: TA97, Metabolic Activation: RAT, LIVER, S-9, AROCLOR 1254, Method: STANDARD PLATE) was “inactive; negative” and the mutagenic call [2] was “inactive; negative”. The mutagenic call [3] was “inactive; negative”, the mutagenic call [4] was “inactive; negative” and the mutagenic call [5] was “inactive; negative”. For the same molecule, the mutagenic call (Test System: AMES SALMONELLA TYPHIMURIUM, Strain/Indicator: TA104, Metabolic Activation: NONE, Method: STANDARD PLATE) was “inactive; negative”, the mutagenic call (Test System: AMES SALMONELLA TYPHIMURIUM, Strain/Indicator: TA104, Metabolic Activation: RAT, LIVER, S-9, AROCLOR 1254, Method: STANDARD PLATE) was “inactive; negative” and the mutagenic call (Test System: CHINESE HAMSTER OVARY, Strain/Indicator: CHO-K1-BH4 (HGPRT), Metabolic Activation: NONE) was “inactive; negative”. The mutagenic call (Test System: CHINESE HAMSTER OVARY, Strain/Indicator: CHO-K1-BH4 (HGPRT), Metabolic Activation: RAT, LIVER, S-9, AROCLOR 1254) was “inactive; negative”.

In the case of `Oc1ccc(O)c2c(O)c3ccccc3c(O)c12`, the mutagenic call [2] was “inactive; negative”, the mutagenic call [3] was “inactive; negative” and the mutagenic call [4] was “inactive; negative”. For the same molecule, the mutagenic call [5] was “inactive; negative”, the mutagenic call (Test System: AMES SALMONELLA TYPHIMURIUM, Strain/Indicator: TA1535, Metabolic Activation: NONE, Method: STANDARD PLATE) was “inactive; negative” and the mutagenic call (Test System: AMES SALMONELLA TYPHIMURIUM, Strain/Indicator: TA1535, Metabolic Activation: RAT, LIVER, S-9, AROCLOR 1254, Method: STANDARD PLATE) was “inactive; negative”. The mutagenic call (Test System: AMES SALMONELLA TYPHIMURIUM, Strain/Indicator: TA1537, Metabolic Activation: NONE, Method: STANDARD PLATE) was “active; positive”, the mutagenic call (Test System: AMES SALMONELLA TYPHIMURIUM, Strain/Indicator: TA1537, Metabolic Activation: RAT, LIVER, S-9, AROCLOR 1254, Method: STANDARD PLATE) was “active; positive” and the mutagenic call (Test System: AMES SALMONELLA TYPHIMURIUM, Strain/Indicator: TA1538, Metabolic Activation: RAT, LIVER, S-9, AROCLOR 1254, Method: STANDARD PLATE) was “inactive; negative”.

`CC(N)CCN` (stereo not drawn) was tested, and the mutagenic call [1] was “inactive; negative”, the mutagenic call (Test System: AMES SALMONELLA TYPHIMURIUM, Strain/Indicator: TA98, Metabolic Activation: RAT, LIVER, S-9, PCB, Method: PREINCUBATION) was “inactive; negative” and the mutagenic call [6] was “inactive; negative”. The mutagenic call (Test System: AMES SALMONELLA TYPHIMURIUM, Strain/Indicator: TA100, Metabolic Activation: RAT, LIVER, S-9, PCB, Method: PREINCUBATION) was “inactive; negative”.

In the case of `CCNCC`, the mutagenic call (Test System: AMES SALMONELLA TYPHIMURIUM, Strain/Indicator: TA98, Metabolic Activation: HAMSTER, LIVER, S-9, AROCLOR 1254 (10%), Method: PREINCUBATION) was “inactive; negative”, the mutagenic call [1] was “inactive; negative” and the mutagenic call (Test System: AMES SALMONELLA TYPHIMURIUM, Strain/Indicator: TA98, Metabolic Activation: RAT, LIVER, S-9, AROCLOR 1254 (10%), Method: PREINCUBATION) was “inactive; negative”. For the same molecule, the mutagenic call (Test System: AMES SALMONELLA TYPHIMURIUM, Strain/Indicator: TA100, Metabolic Activation: HAMSTER, LIVER, S-9, AROCLOR 1254 (10%), Method: PREINCUBATION) was “inactive; negative”, the mutagenic call [6] was “inactive; negative” and the mutagenic call (Test System: AMES SALMONELLA TYPHIMURIUM, Strain/Indicator: TA100, Metabolic Activation: RAT, LIVER, S-9, AROCLOR 1254 (10%), Method: PREINCUBATION) was “inactive; negative”. For the same molecule, the mutagenic call (Test System: AMES SALMONELLA TYPHIMURIUM, Strain/Indicator: TA1535, Metabolic Activation: HAMSTER, LIVER, S-9, AROCLOR 1254 (10%), Method: PREINCUBATION) was “inactive; negative”, the mutagenic call (Test System: AMES SALMONELLA TYPHIMURIUM, Strain/Indicator: TA1535, Metabolic Activation: NONE, Method: PREINCUBATION) was “inactive; negative” and the mutagenic call (Test System: AMES SALMONELLA TYPHIMURIUM, Strain/Indicator: TA1535, Metabolic Activation: RAT, LIVER, S-9, AROCLOR 1254 (10%), Method: PREINCUBATION) was “inactive; negative”. For the same molecule, the mutagenic call (Test System: AMES SALMONELLA TYPHIMURIUM, Strain/Indicator: TA1537, Metabolic Activation: HAMSTER, LIVER, S-9, AROCLOR 1254 (10%), Method: PREINCUBATION) was “inactive; negative”, the mutagenic call (Test System: AMES SALMONELLA TYPHIMURIUM, Strain/Indicator: TA1537, Metabolic Activation: NONE, Method: PREINCUBATION) was “inactive; negative” and the mutagenic call (Test System: AMES SALMONELLA TYPHIMURIUM, Strain/Indicator: TA1537, Metabolic Activation: RAT, LIVER, S-9, AROCLOR 1254 (10%), Method: PREINCUBATION) was “inactive; negative”.

For `c1ccc2c(c1)C1CCCCC1[C@@H]1O[C@@H]21` (stereo partly drawn), the mutagenic call [2] was “inactive; negative” and the mutagenic call [4] was “inactive; negative”.
